This is an account of results in patent publication US5962451A, “Benzodiazepin derivatives useful as CCK-receptor antagonists” (Ferring BV, priority 1992, dated 1999).

For experiment [1], the target named is T1, CCK-B receptor (Rattus norvegicus, UniProt P30553).
T1 construct: the whole brain was immediately excised from each of the rats and homogenized; from tissue; host or cells: SD rat whole brain, membrane preparation
The experiment in a line: Measurement of Binding Affinity for CCK-B Receptors ([125I]BH-CCK-8 displacement, rat brain membranes). The settings on record: SD rat brain membranes, [125I]BH-CCK-8, 25° C., 120 min, pH 6.5. How it is done: Measurement of Binding Affinity for CCK-B Receptors
About 100 SD rats were decapitated without anaesthesia, the whole brain was immediately excised from each of the rats and homogenized in 10-fold volume of 0.32 M aqueous solution of sucrose by the use of a Teflon-coatedhomogenizer, the homogenate thus obtained was centrifuged for ten minutes at 900 g by the use of a cooled centrifuge, and the supernatant was further centrifuged for 15 minutes at 11500 g. The precipitate thus obtained was dispersed in 50 mM Tris-HCl buffer (pH 7.4) containing 0.08% Triton X-100, this suspension was allowed to stand for 30 minutes and again centrifuged for 15 minutes at 11500 g, the precipitate thus obtained was washed twice with 5 mM Tris-HCl buffer and twice with 50 mM Tris-HCl buffer in that order with centrifugal separation, the washed precipitate was suspended in 50 mM Tris-HCl buffer, and the suspension thus obtained was stored at -80° C. until the membrane preparation was required.
The membrane preparations were warmed to room temperature, diluted with 10 mM HEPES buffer (containing 130 mM NaCl, 5 mM MgCl2, 1 mM EGTA and 0.25 mg/ml bacitracin; pH 6.5) and incubated at 25° C. for 120 minutes in the presence of [^125 I]BH-CCK-8 and the test compound, then separated by suction filtration. Non-specific binding was determined in the presence of 1 μM CCK-8. The amount of labelled ligand bound to the receptor was measured by the use of a γ-counter; IC50 values were determined, being that concentration of test compound required to inhibit specific binding by 50%.
A high affinity for the CCK-A receptor in a gastrin/CCK-B antagonist is thought to be undesirable as it may lead to side-effects such as cholestasis and gall stone formation during therapy. Therefore it is preferable for the therapeutic agent to be selective for the CCK-B receptor. This selectivity is expressed by the ratio IC50. (CCK-A)/IC50 (CCK-B); the higher the value of this ratio the better is the selectivity.
The table below summarises CCK-B and CCK-A binding data for examples of preferred compounds, as well as the A/B ratio. Many compounds display a marked increase in CCK-B receptor binding affinity when compared to the compound of Example 281 of U.S. Pat. No. 4,820,834 (also known as L-365,260). Several compounds also show much greater selectivity for the CCK-B receptor over the CCK-A receptor than that reported for the compound of Example 281 of U.S. Pat. No.

Experiment [2] has as its system Pentagastrin-stimulated gastric acid secretion. The experiment in a line: Measurement of Inhibition of Pentagastrin-stimulated Gastric Acid Secretion in dog (Heidenhain pouch). In kind it is in vivo, male beagle dog. The settings on record: beagle dog, oral, pentagastrin 8 μg/kg/hr, mean for 3-5 animals. How it is done:
Measurement of Inhibition of Pentagastrin-stimulated Gastric Acid Secretion in doc
Assays were performed using male beagle dogs (7-12 kg) two months after surgical preparation of Heidenhain pouches following the conventional procedure. Each dog was used only once per week.
The animals were deprived of food with free access to water for 18 hr prior to the experiment. The gastric juice was collected from the gastric cannula by gravity drainage every 15 min, and acid output was determined by automatic titration with 0.05 N NaOH to pH 7.0 (Comtite-7, Hiranuma, Tokyo, Japan). Drugs were administered orally 3 hr after the start of the pentagastrin (8 μg/kg/hr) infusion. The effect of each drug was calculated as the percentage inhibition of stimulated acid output. […] Each result is a mean for 3-5 animals.

Experiment [3] has as its target T2, CCK-A receptor (Rattus norvegicus, UniProt P30551).
T2 construct: The pancreas of an SD rat was homogenized; from tissue; host or cells: SD rat pancreas, membrane preparation
T2 sequence (P30551 1-444): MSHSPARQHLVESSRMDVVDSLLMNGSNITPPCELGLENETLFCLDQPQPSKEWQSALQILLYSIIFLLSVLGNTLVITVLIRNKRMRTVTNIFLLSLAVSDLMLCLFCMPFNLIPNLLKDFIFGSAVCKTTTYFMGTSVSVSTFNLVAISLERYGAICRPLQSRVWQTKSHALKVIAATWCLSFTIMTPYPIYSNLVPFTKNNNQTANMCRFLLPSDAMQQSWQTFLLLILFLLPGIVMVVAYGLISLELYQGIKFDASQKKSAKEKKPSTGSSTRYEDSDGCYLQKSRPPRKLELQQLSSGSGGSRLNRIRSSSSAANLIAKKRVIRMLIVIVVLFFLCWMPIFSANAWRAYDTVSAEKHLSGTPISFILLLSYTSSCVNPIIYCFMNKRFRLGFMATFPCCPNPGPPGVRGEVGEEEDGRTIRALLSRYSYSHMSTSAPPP
Put plainly: Measurement of Binding Affinity for CCK-A Receptors ([3H]L-364,718 displacement, rat pancreas membranes). The settings on record: SD rat pancreas membranes, [3H]L-364,718, 37° C., 30 min. The method, then: Measurement of Binding Affinity for CCK-A Receptors
The pancreas of an SD rat was homogenized in a 20-fold volume of 50 mM Tris-HCl buffer (pH 7.7) by the use of a Polytrone-type homogenizer, the homogenate was twice centrifuged for 10 minutes at 50000 g by the use of an ultra-centrifuge, the precipitate thus obtained was suspended in a 40-fold volume of 50 mM Tris-HCl buffer (containing 0.2% BSA, 5 mM MgCl2, 0.1 mg/ml bacitracin and 5 mM DTT; pH 7.7), and the suspension was stored at -80° C. until the membrane preparations were required.
The membrane preparations were then warmed to room temperature, diluted 1:10 with the buffer and incubated at 37° C. for 30 minutes in the presence of [^3 H]L-364,718 and the test compound then separated by suction filtration. Non-specific binding was determined in the presence of 1 μM L-364,718. The amount of labelled ligand bound to the receptor was measured by the use of a liquid scintillation counter; IC50 values were determined, being that concentration of test compound required to inhibit specific binding by 50%.
A high affinity for the CCK-A receptor in a gastrin/CCK-B antagonist is thought to be undesirable as it may lead to side-effects such as cholestasis and gall stone formation during therapy. Therefore it is preferable for the therapeutic agent to be selective for the CCK-B receptor. This selectivity is expressed by the ratio IC50. […]

T1 sequence (P30553 whole entry): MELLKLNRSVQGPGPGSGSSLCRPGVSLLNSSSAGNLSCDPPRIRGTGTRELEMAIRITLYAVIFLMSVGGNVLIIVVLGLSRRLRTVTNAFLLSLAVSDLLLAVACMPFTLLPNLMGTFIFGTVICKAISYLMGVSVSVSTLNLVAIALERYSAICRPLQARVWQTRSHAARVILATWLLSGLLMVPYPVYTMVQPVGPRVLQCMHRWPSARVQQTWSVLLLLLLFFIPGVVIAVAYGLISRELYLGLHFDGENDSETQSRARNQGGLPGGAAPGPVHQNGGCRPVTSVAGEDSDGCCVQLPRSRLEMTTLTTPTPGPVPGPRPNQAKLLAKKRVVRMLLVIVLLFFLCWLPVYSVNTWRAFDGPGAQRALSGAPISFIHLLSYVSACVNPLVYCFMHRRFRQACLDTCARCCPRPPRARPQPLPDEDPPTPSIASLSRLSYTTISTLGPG

The term IC50 denotes the concentration needed to halve the response being measured. Low readings indicate greater potency, high ones weaker potency. With `Cc1cccc(NC(=O)NC2N=C(c3ccccc3)c3ccccc3N(CC(=O)C3CCCC3)C2=O)c1` (racemic) [Example 4, N-((3RS)-1-Cyclopentylcarbonylmethyl-2,3-dihydro-2-oxo-5-phenyl-1H-1,4-benzodiazepin-3-yl)-N'-(3-methylphenyl) urea], the IC50 in experiment [1] stood at 0.23 nM.

As for `Cc1cccc(NC(=O)N[C@@H]2N=C(c3ccccc3)c3ccccc3N(CC(=O)C(C)(C)C)C2=O)c1` [Example 26, N-((3R)-1-tert-Butylcarbonylmethyl-2,3-dihydro-2-oxo-5-phenyl-1H-1,4-benzodiazepin-3-yl)-N'-(3-methylphenyl) urea], in experiment [2] (3 μmol/kg), the “maximum inhibition of stimulated acid output” value (from here on “maximum inhibition”) amounted to 53%.

As for `CN(C)c1cccc(NC(=O)N[C@@H]2N=C(c3ccccc3)c3ccccc3N(CC(=O)C(C)(C)C)C2=O)c1` [Example 64, N-((3R)-1-tert-Butylcarbonylmethyl-2,3-dihydro-2-oxo-5-phenyl-1H-1,4-benzodiazepin-3-yl)-N'-(3-dimethylaminophenyl) urea], in experiment [2] (3 μmol/kg), the “maximum inhibition” value is recorded as 100%.

In experiment [1], `Cc1cccc(NC(=O)NC2N=C(c3ccccc3)c3ccccc3N(CC(=O)C3(C)CCCCC3)C2=O)c1` (racemic) [Example 34, N-((3RS)-1-((1-Methylcyclohexyl)carbonylmethyl)-2,3-dihydro-2-oxo-5-phenyl-1H-1,4-benzodiazepin-3-yl)-N'-(3-methylphenyl) urea] had an IC50 of 0.38 nM.

`Cc1cccc(NC(=O)NC2N=C(c3ccccn3)c3ccccc3N(CC(=O)C(C)(C)C)C2=O)c1` (racemic) [Example 27, N-((3RS)-1-tert-Butylcarbonylmethyl-2,3-dihydro-2-oxo-5-(2-pyridyl)-1H-1,4-benzodiazepin-3-yl)-N'-(3-methylphenyl) urea]: the “maximum inhibition” value in experiment [2] (3 μmol/kg) is recorded as 66%.

Take `CN(C)c1cccc(NC(=O)NC2N=C(c3ccccn3)c3ccccc3N(CC(=O)C(C)(C)C)C2=O)c1` (racemic) [Example 38, N-((3RS)-1-tert-Butylcarbonylmethyl-2,3-dihydro-2-oxo-5-(2-pyridyl)-1H-1,4-benzodiazepin-3-yl)-N'-(3-dimethylaminophenyl) urea]: the “maximum inhibition” value in experiment [2] (3 μmol/kg) was determined as 100%.

On to `Cc1cccc(NC(=O)N[C@@H]2N=C(c3ccccc3)c3ccccc3N(C)C2=O)c1` [reference compound], for which the “maximum inhibition” value in experiment [2] (100 μmol/kg) is listed as 0%.

For `Cc1cccc(NC(=O)NC2N=C(c3ccccc3)c3ccccc3N(CC(=O)CC3CCCCC3)C2=O)c1` (racemic) [Example 32, N-((3RS)-1-Cyclohexylmethylcarbonylmethyl-2,3-dihydro-2-oxo-5-phenyl-1H-1,4-benzodiazepin-3-yl)-N'-(3-methylphenyl) urea], the IC50 in experiment [1] turned out to be 0.28 nM.

Take `Cc1cccc(NC(=O)NC2N=C(c3ccccn3)c3ccccc3N(CC(=O)C3CCCC3)C2=O)c1` (racemic) [Example 14, N-((3RS)-1-Cyclopentylcarbonylmethyl-2,3-dihydro-2-oxo-5-(2-pyridyl)-1H-1,4-benzodiazepin-3-yl)-N'-(3-methylphenyl)urea]: the IC50 was found to be 2600 nM in experiment [3] and 0.12 nM in experiment [1].
